{"source": "paper PMC7738869", "about": "“A novel STAT3 inhibitor W2014-S regresses human non-small cell lung cancer xenografts and sensitizes EGFR-TKI acquired resistance” (Theranostics, 2021)", "key": {"[1]": {"test_system": "Bcl-2, Bcl-xL and c-Myc", "assay": "Western blot of STAT3 downstream genes in A549 and PC-9 cells", "assay_type": "cell-based, human", "conditions": "A549 and PC-9, 0-3 μM, 24 h", "protocol": "(§1) Cells or tumor tissue were lysed with RIPA buffer (Beyotime, Shanghai, China) supplemented with protease inhibitors (Beyotime, Shanghai, China) and phosphatase inhibitors (Bimake, USA). Lysates were denatured by heating for 5 min at 99 °C and loaded on 4-10% SDS-polyacrylamide gel electrophoresis. Then the proteins were transferred to polyvinylidene fluoride (PVDF) membranes (Millipore, USA). The membranes were blocked and probed with primary antibodies and secondary HPR-conjugated antibodies. At last the membranes were detected by chemiluminescence (Tanon, Shanghai, China). For co-immunoprecipitation experiments, 293T cells were plated and grew to about 80% confluency, then co-transfected with plasmids of HA-STAT3 and Flag-STAT3 using Lipofectamine 2000. After 24 h, cells were treated with different concentrations of W2014-S for following 24 h, and stimulated with IL-6 (100 ng/mL) for 1 h. Cells were lysed with IP RIPA buffer (Beyotime, Shanghai, China) supplemented with protease inhibitors (Beyotime, Shanghai, China) and phosphatase inhibitors (Bimake, America), and lysates were cultured with Anti-flag Affinity Gel (B23102, Bimake, USA) overnight at 4 ℃. The gel was washed by PBST for three times and added 1×loading buffer and denatured by heating for 5 min at 99 ℃. Then the proteins were resolved on SDS-PAGE, transferred to PVDF membranes and analysed with immunoblotting."}, "[2]": {"test_system": "c-Caspase-7", "assay": "Western blot of c-Caspase-7 in A549 and PC-9 cells", "assay_type": "cell-based, human", "protocol": "as §1"}, "[3]": {"test_system": "A549 cells with STAT3 knock down / knock out", "assay": "Cell proliferation assay in A549 cells with STAT3 knocked down (siRNA) or knocked out (CRISPR/Cas9)", "assay_type": "cell-based, human", "from_the_text": "To knockout the STAT3 gene in A549 cells using CRISPR/Cas9 system, the lentiCRISPRv2 vector (gift from Professor Junjian Wang, Sun Yat-Sen University, China) was used. An optimized guide RNA (gRNA) targeting the exon2 of STAT3 was designed in an online CRISPR design tool (http://crispor.tefor.net/). Then the guide RNA (synthesized by Sangon Biotech) inserted into lentiCRISPRv2 vector and the recombinant plasmid (sgSTAT3) was transfected and amplified in E.coli JM109. The confirmed and purified sgSTAT3 plasmid was transfected into A549 cells using lentivirus, after 48h post-transfection, cells were selected by introducing into 3 μg/mL puromycin for 2 weeks. Then the puromycin-resistant cells were planted into 96-wells plate with a density of one single cell per well and expanse to select the STAT3-konckout cells. The STAT3-konckout cells isolated from the single-colony were verified by western blotting analysis. The gRNA used to knockout STAT3 as follows,\nCell proliferation was measured using the Cell Counting Kit-8 (CCK-8, B34304, Bimake, USA). […] The absorbance (A) was measured by a microplate reader (FLUOstar Omega-ACU, USA) at test and reference wavelengths of 450 nm. The percentage of growth was calculated as Cell viability (%) = [A (Compound +) - A (Blank) ] / [A (Compound -) - A (Blank) ] × 100%. […]"}, "[4]": {"test_system": "JAK2", "assay": "Western blot of phosphorylated and total JAK2 in A549 and PC-9 cells", "assay_type": "cell-based, human", "conditions": "A549 and PC-9, 0-3 μM, 24 h", "protocol": "as §1"}, "[5]": {"test_system": "A549 cells", "assay": "Cell apoptosis assay (Annexin V-FITC/PI flow cytometry), A549", "assay_type": "cell-based, human", "conditions": "A549, 1.0 μM, 72 h", "protocol": "(§2) Briefly, aliquots of 2 × 10^5 cells were seeded into 6-well plates and incubated for 24 h at 37 °C. […] After trypsinization and gently washing cells once with medium, the cells were washed twice with cold PBS. The precipitation was resuspended by 400 μL of 1 × binding buffer, and then resuspended cells were transferred into new 1.5 mL EP tubes. Then 3 μL of Annexin V-FITC and 5 μL of propidium iodide were added to the resuspended cells with further incubation at room temperature for 15 min in the dark. The analysis was done on Guava easyCyte (USA) and FlowJo 7.6 software."}, "[6]": {"assay": "Acute toxicity study", "assay_type": "in vivo", "conditions": "KM mice, 100, 300 and 500 mg/kg i.p., observed 14 days", "protocol": "KM mice (4-5 weeks of age, weighing 18-22g, both male and female) for acute toxicity experiment were provided from the Experimental Animal Center of Sun Yat-sen University (Guangdong, China) and were housed in a specific pathogen-free facility. To test the acute toxicity, 40 mice were randomly distributed into 4 groups, and treated with W2014-S at 100 mg/kg, 300 mg/kg, and 500 mg/kg by intraperitoneal injection. Each group have 10 mice (half male and half female). […] All animal experiments were approved by the Research Ethics Committee of Sun Yat-sen University (SYSU-IACUC-2020-000312)."}, "[7]": {"test_system": "PC-9 cells", "assay": "Cell apoptosis assay (Annexin V-FITC/PI flow cytometry), PC-9", "assay_type": "cell-based, human", "conditions": "PC-9, 1.0 μM, 72 h", "protocol": "as §2"}, "[8]": {"test_system": "pY705-STAT3", "assay": "Western blot of pY705-STAT3 in A549 cells", "assay_type": "cell-based, human", "protocol": "as §1"}, "[9]": {"test_system": "A549 cells", "assay": "Colony formation assay, A549", "assay_type": "cell-based, human", "conditions": "A549, as low as 0.3 μM"}}, "data": [{"smiles": "C[C@H](Oc1ccc(-c2nc3nc(C4=CCN(C(=O)OC(C)(C)C)CC4)ccc3[nH]2)cc1)c1ccccc1", "note": "[W2014-S]", "values": [{"measurement": "expression of STAT3 downstream genes Bcl-2, Bcl-xL and c-Myc", "setting": "[1]", "result": "inhibited by W2014-S dose-dependently"}, {"measurement": "cleavage of caspase-7", "setting": "[2]", "result": "induced"}, {"measurement": "anti-cancer activities in STAT3 knocked out cells", "setting": "[3]; A549, Crispr/cas9", "result": "significantly attenuated"}, {"measurement": "anti-cancer activities in STAT3 knocked down cells", "setting": "[3]; A549, siRNA interference", "result": "significantly attenuated"}, {"measurement": "protein level of phosphorylated JAK2 and total JAK2", "setting": "[4]", "result": "little or no effect"}, {"measurement": "apoptosis", "setting": "[5]", "result": "induced apoptosis"}, {"measurement": "acute toxicity: body weights and signs of toxicity", "setting": "[6]", "result": "no significant changes in body weights, or obvious signs of toxicity"}, {"measurement": "apoptosis", "setting": "[7]", "result": "induced apoptosis"}, {"measurement": "phosphorylation level of STAT3", "setting": "[8]; A549, 0, 1, 3 and 5 μM, 24 h", "result": "inhibit the phosphorylation level of STAT3 in a dose dependent manner, and more potent than W2014-R"}, {"measurement": "phosphorylation of STAT3 at Y705, time course", "setting": "[8]; A549, 1 μM, 0-24 h", "result": "inhibited after 1 h treatment"}, {"measurement": "colony formation", "setting": "[9]", "result": "significantly suppressed the colony formation"}]}]}
